Experimental data: patent US9518000B2, “Bicyclo [2.2.1] acid GPR120 modulators” (BRISTOL-MYERS SQUIBB COMPANY, priority 2013, dated 2016)

Each compound was assayed against human GPR120 (Homo sapiens (Human), UniProt Q5NUL3) (assay: GPR120 pERK AlphaScreen SureFire Assay (human GPR120 pERK assay)). Conditions: CHOA12 or CHO-K1 cells stably transfected with the short form of human GPR120 receptor; phosphorylated ERK; read-out: EC50 values measured in the human GPR120 pERK assay.
human GPR120, sequence (Q5NUL3 whole entry): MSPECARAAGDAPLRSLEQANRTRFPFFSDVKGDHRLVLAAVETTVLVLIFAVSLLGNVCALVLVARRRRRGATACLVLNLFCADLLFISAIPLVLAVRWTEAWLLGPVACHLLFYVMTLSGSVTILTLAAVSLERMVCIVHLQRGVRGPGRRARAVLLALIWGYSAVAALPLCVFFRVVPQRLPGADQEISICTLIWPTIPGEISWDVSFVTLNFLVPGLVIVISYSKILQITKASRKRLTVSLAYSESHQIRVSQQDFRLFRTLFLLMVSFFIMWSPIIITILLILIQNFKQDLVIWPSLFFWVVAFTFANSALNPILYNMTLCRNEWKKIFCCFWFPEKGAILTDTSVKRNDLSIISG
Assay type: cell-based
Source text: GPR120 activity was monitored by measuring phosphorylation of ERK (pERK), since G protein receptors are known to activate the ERK signaling cascade either directly and/or through recruitment of arrestin that serves as a scaffold for downstream signaling events.
GPR120 pERK AlphaScreen SureFire Assay
The human and mouse GPR120-mediated intracellular phosphorylated ERK assays were established using CHOA12 cells stably transfected with the short form of human or mouse GPR120 receptor. Cells were cultured in growth medium consisting of F-12 media (Invitrogen Cat. #11765) with 5% Charcoal/Dextran FBS (Invitrogen Cat. #12676-029), 500 μg/mL GENETICIN® (Life Technologies Cat. #10131-027) and 250 μg/mL Zeocin (Invitrogen Cat. #R250-01). Cells were cryo preserved at a concentration of 2×10^7 cells/mL, in 90% Charcoal/Dextran FBS and 10% DMSO, and frozen in liquid nitrogen at a low passage number.
For the pERK assay, 2×10^7 cells/mL cryopreserved human and mouse cells were thawed rapidly in a 37° C. water bath and added to a T-225 flask containing 50 mL growth medium. The flasks were placed in a tissue culture incubator overnight (37° C., 5% CO2). The next day, cells were harvested with trypsin (Gibco Cat. #25300-054), resuspended in serum-containing growth medium and counted using a Cellometer and volume adjusted to a concentration of 0.6×10^6 cells/mL. Cells were plated into 384-well clear bottom tissue culture plates (BD Cat. #353962) at 50 μL/well, for a density of 30,000 cells/well using a MULTIDROP® and incubated for 16-18 hours (overnight) at 37° C. with 5% CO2. The next day, cells were serum starved in 30 μL of F-12 media without any serum or antibiotics for 2 hours at 37° C.
Test compounds were 3-fold, 11-point serially diluted in DMSO in a REMP assay plate (Matrix Cat. #4307) by Tecan and 5 μL was transferred into an ECHO source plate (LabCyte Cat. #LC-0200). Cells were then stimulated with 50 nL of compound dilutions using ECHO liquid handler for 7 minutes at 37° C. Compounds ranged from final assay concentrations of 33.33 μM to 0.56 nM.
The media was then dumped and cells lysed with 20 μL of 1× Lysis buffer from the AlphaScreen SureFire Phospho-ERK 1/2 Kit (Perkin Elmer Cat. #6760617M). The lysis buffer was diluted 5-fold with water before use. The plate was agitated on a shaker for 10 minutes after which 2 μL was transferred into a 384-well white proxiplate (Perkin Elmer Cat. #6008289). The SureFire assay reagent mix was prepared by mixing 60 parts Reaction Buffer, 10 parts Activation Buffer, 1 part Donor Beads, 1 part Acceptor Beads (Perkin Elmer Cat. #TGRES10K). 3.5 μL/well of this reagent mix was manually added to the proxiplate with a multichannel pipettor. Plates were spun down at 1000 rpm for 2 minutes, followed by light-protected incubation at room temperature for 2 hours. The plates were read on the Alpha-technology compatible Envision multilabel plate reader using AlphaScreen protocol according to manufacturer's specifications. The agonist effect of compounds was expressed as 100×(average sample-average blank)/(average total−average blank) where sample is the luminescence activity in the presence of test compound, blank is equal to the luminescence activity in the presence of DMSO control and the total is signal induced by 50 μM linolenic acid as reference compound. Activation data for the test compound over a range of concentrations was plotted as percentage activation of the test compound (100%=maximum response). After correcting for background, EC50 values were determined. The EC50 is defined as the concentration of test compound which produces 50% of the maximal response and was quantified using the 4 parameter logistic equation to fit the data.
The human and mouse GPR120-mediated intracellular phosphorylated ERK assays were also established using CHO-K1 cells stably transfected with the short form of human or mouse GPR120 receptor. […]
For `O=C(O)CCCC12CCC(OCc3c(F)ccc(F)c3Cl)(CC1)C2` [Example 56, 4-(4-(2-chloro-3,6-difluorobenzyl-oxy)bicyclo [2.2.1]heptan-1-yl)butanoic acid], the EC50 was 1880 nM.
In the case of `O=C(O)CCOC12CCC(OCc3cc(F)cc(Oc4ccccc4)c3)(CC1)C2` [Example 79, 3-(4-(3-Fluoro-5-phenoxybenzyloxy)bicyclo[2.2.1]heptan-1-yloxy)propanoic acid], the EC50 is reported as 270 nM.
Compound `COc1cc(Cl)ccc1COC12CCC(CCCC(=O)O)(CC1)C2` [Example 40, 4-(4-(4-chloro-2-methoxybenzyl-oxy)bicyclo [2.2.1]heptan-1-yl)butanoic acid] has an EC50 of 2300 nM.
`CC(C)Oc1cccc(COC23CCC(CCCC(=O)O)(CC2)C3)c1` [Example 38, 4-(4-(3-isopropoxy-benzyloxy)bicyclo [2.2.1]heptan-1-yl)butanoic acid] gave an EC50 of 1680 nM.
In the case of `O=C(O)CCCC12CCC(OCc3cc(Cl)ccc3OC(F)(F)F)(CC1)C2` [Example 19, 4-(4-(5-chloro-2-(trifluorometh-oxy)benzyloxy)bicyclo[2.2.1]heptan-1-yl) butanoic acid], the EC50 is reported as 520 nM.
“3-(4-(1-(3-fluoro-5-(4- fluorophenoxy)phenyl)ethoxy) bicyclo[2.2.1]heptan-1-yloxy) propanoic acid [Example 82]” was tested, and the EC50 was 980 nM.
Compound `O=C(O)CCCC12CCC(OCc3cccc(Oc4ccc(F)cc4)c3)(CC1)C2` [Example 17, 4-(4-(3-(4-fluorophenoxy)benzyloxy)bicyclo[2.2.1]-1-yl)butanoic acid] has an EC50 of 250 nM.
`Cc1cc(COC23CCC(CCCC(=O)O)(CC2)C3)cc(OC(F)(F)F)c1` [Example 7, 4-(4-(3-methyl-5-(trifluorometh-oxy)benzyloxy)bicyclo[2.2.1]heptan-1-yl) butanoic acid] was tested, and the EC50 was 230 nM.
`O=C(O)CCCC12CCC(OCc3ccccc3C(F)(F)F)(CC1)C2` [Example 64, 4-(4-(2-(trifluoro-methyl)benzyloxy)bicyclo[2.2.1]heptan-1-yl) butanoic acid] was tested, and the EC50 was 1510 nM.
Compound `CC1(C)Cc2cc(Cl)cc(COC34CCC(CCC(=O)O)(CC3)C4)c2O1` [Example 71, 3-(4-((5-Chloro-2,2-dimethyl-2,3-dihydrobenzofuran-7-yl)methoxy)bicyclo[2.2.1]heptan-1-yl)propanoic acid] has an EC50 of 6640 nM.
In the case of `O=C(O)CCCC12CCC(OCc3cc(F)cc(C(F)(F)F)c3)(CC1)C2` [Example 25, 4-(4-(3-fluoro-5-(trifluoromethyl)benzyloxy)bicyclo[2.2.1]heptan-1-yl) butanoic acid], the EC50 is reported as 640 nM.
In the case of “4-(4-(3-chloro-5- phenoxybenzyl- oxy)bicyclo [2.2.1]heptan- 1-yl)benzoic acid [Example 6]”, the EC50 is reported as 450 nM.
`O=C(O)COCC12CCC(OCc3cc(F)cc(Oc4ccc(F)cc4)c3)(CC1)C2` [Example 75, 2-((4-(3-fluoro-5-(4-fluorophenoxy)benzyloxy)bicyclo[2.2.1]heptan-1-yl)methoxy)acetic acid] was tested, and the EC50 was 1850 nM.
`CC(OC12CCC(CCCC(=O)O)(CC1)C2)c1cccc(C(F)(F)F)c1` (centres unmarked) [Example 8, 4-(4-(1-(3-(trifluoromethyl)phenyl)ethoxy)bicyclo[2.2.1]heptan-1-yl) butanoic acid] gave an EC50 of 2340 nM.
For `O=C(O)CCCC12CCC(OCc3ccsc3Br)(CC1)C2` [Example 54, 4-(4-((2-bromo-thiophen-3-yl)methoxy)bicyclo [2.2.1]heptan-1-yl)butanoic acid], the EC50 was 1690 nM.
`O=C(O)C1CC1CC12CCC(OCc3cccc(Oc4ccccc4)c3)(CC1)C2` (centres unmarked) [Example 95, 2-((4-((3-Phenoxybenzyl)oxy)bicyclo[2.2.1]heptan-1-yl)methyl)cyclopropanecarboxylic acid] was tested, and the EC50 was 510 nM.
`O=C(O)CCCC12CCC(OCc3ccccc3-c3ccccc3)(CC1)C2` [Example 48, 4-(4-(biphenyl-2-ylmethoxy)bicyclo[2.2.1]heptan-1-yl) butanoic acid] showed an EC50 of 320 nM.
Work on `O=C(O)CCCC12CCC(OCc3cccc(Oc4ccccc4F)c3)(CC1)C2` [Example 16, 4-(4-(3-(2-fluorophenoxy)benzyloxy)bicyclo[2.2.1]heptan-1-yl) butanoic acid] yielded an EC50 of 640 nM.
Compound `O=C(O)CCCC12CCC(OCc3cc(Cl)cc(OC(F)(F)F)c3)(CC1)C2` [Example 18, 4-(4-(3-chloro-5-(trifluorometh-oxy)benzyloxy)bicyclo[2.2.1]heptan-1-yl) butanoic acid] has an EC50 of 250 nM.
For `O=C(O)CCCC12CCC(OCc3ccc(Cl)c(Cl)c3)(CC1)C2` [Example 11, 4-(4-(3,4-dichlorobenzyl-oxy)bicyclo[2.2.1]heptan-1-yl) butanoic acid], the EC50 was 1090 nM.
`COc1ccc(COC23CCC(CCCC(=O)O)(CC2)C3)c(OC(F)(F)F)c1` [Example 43, 4-(4-(4-methoxy-2-(trifluoromethoxy)benzyloxy)bicyclo[2.2.1]heptan-1-yl) butanoic acid] was tested, and the EC50 was 320 nM.
Compound `CS(=O)(=O)NC(=O)CCCC12CCC(OCc3cc(F)ccc3Oc3ccccc3)(CC1)C2` [Example 83, 4-(4-(5-Fluoro-2-phenoxybenzyloxy)bicyclo[2.2.1]heptan-1-yl)-N-(methylsulfonyl) butanamide] has an EC50 of 400 nM.
In the case of `O=C(O)CCCC12CCC(OCc3cccc(Cl)c3)(CC1)C2` [Example 23, 4-(4-(3-chloro-benzyloxy)bicyclo[2.2.1]heptan-1-yl) butanoic aicd], the EC50 is reported as 1150 nM.
Compound `O=C(O)CCCC12CCC(OCc3ccccc3SC(F)(F)F)(CC1)C2` [Example 49, 4-(4-(2-(trifluoro-methylthio)benzyloxy)bicyclo [2.2.1]heptan-1-yl)butanoic acid] has an EC50 of 660 nM.
`CC(C)Oc1cc(F)cc(COC23CCC(CCCC(=O)O)(CC2)C3)c1` [Example 35, 4-(4-(3-fluoro-5-isopropoxybenzyl-oxy)bicyclo [2.2.1]heptan-1-yl)butanoic acid] showed an EC50 of 440 nM.
`O=C(O)CCCC12CCC(OCc3cccc(-c4cccs4)c3)(CC1)C2` [Example 61, 4-(4-(3-(thiophen-2-yl)benzyloxy)bicyclo[2.2.1]heptan-1-yl) butanoic acid] gave an EC50 of 750 nM.
`O=C(O)CCCC12CCC(OCc3cc(F)cc(Oc4ccccc4)c3)(CC1)C2` [Example 34, 4-(4-(3-fluoro-5-phenoxybenzyl-oxy)bicyclo [2.2.1]heptan-1-yl)butanoic acid] showed an EC50 of 400 nM.
`COC(=O)CCCC12CCC(OCc3cc(F)ccc3-c3ccc(C)cc3)(CC1)C2` [Example 66, methyl 4-(4-((4-fluoro-4′-methyl-[1,1′-biphenyl]-2-yl)methoxy)bicyclo [2.2.1]heptan-1-yl)butanoic] gave an EC50 of 370 nM.
In the case of `Cc1cc(COC23CCC(CCCC(=O)O)(CC2)C3)n(-c2ccc(Cl)cc2)n1` [Example 1, 4-(4-((1-(4-Chlorophenyl)-3-methyl-1H-pyrazol-5-yl)methoxy)bicyclo[2.2.1]heptan-1-yl) butanoic acid], the EC50 is reported as 1560 nM.
`O=C(O)COCCC12CCC(OCc3cc(F)cc(Oc4ccccc4)c3)(CC1)C2` [Example 100, 2-(2-(4-((3-Fluoro-5-phenoxybenzyl)oxy)bicyclo[2.2.1]heptan-1-yl)ethoxy)acetic acid] showed an EC50 of 570 nM.
`O=C(O)CCCC12CCC(OCc3cc(OC(F)(F)F)ccc3F)(CC1)C2` [Example 33, 4-(4-(2-fluoro-5-(trifluorometh-oxy)benzyloxy)bicyclo[2.2.1]heptan-1-yl) butanoic acid] was tested, and the EC50 was 260 nM.
`O=C(O)CCC12CCC(OCCc3ccccc3Oc3ccccc3)(CC1)C2` [Example 86, 3-(4-(2-Phenoxyphenethoxy)bicyclo[2.2.1]heptan-1-yl)propanoic acid] gave an EC50 of 6990 nM.
